{"source": "patent US10464885B2", "about": "“Compound, preparation method therefor, applications thereof, corresponding targeted drug delivery system, chemotherapy drugs, and treatment method” (BEIJING XINDE RUNXING TECHNOLOGY CO., LTD., priority 2015, dated 2019)", "key": {"[1]": {"system": "Jurkat cell line", "test": "Cell viability CCK-8 assay, Jurkat cell suspension", "assay_type": "cell-based", "settings": "six concentrations 0.041 μM-10 μM; 24 h, 48 h and 72 h; OD at 450 nm", "protocol": "Test cell line: Jurkat cell line (purchased from Nanjing Cobioer Co., Ltd.)\nExperimental method: Cell viability CCK-8 assay\nExperimental design: within a dose concentration range of 0.041 μM-10 μM, six concentrations were designed with three-fold increments, including 0.041 μM, 0.123 μM, 0.367 μM, 1.1 μM, 3.3 μM and 10 μM.\n1. A Jurkat cell suspension was prepared and inoculated to the 96-well plate at an amount of 5×10^4/well.\n2. The Jurkat cell suspension was directly added to different concentrations of NIC-1 and control drug N-(2-chloro-4-nitrophenyl)-5-chloro-2-hydroxybenzamide, followed by culture in an incubator at 37° C. for 24 h, 48 h and 72 h respectively; CCK8 was measured by adding CCK8 to each well at an amount of 10 μl/well, culturing for 2-3 h and detecting a value of OD at 450 nm using a microplate reader.\nExperimental results: the outcomes of the synthesized compound NIC-1 of the present invention and the control drug N-(2-chloro-4-nitrophenyl)-5-chloro-2-hydroxybenzamide in the six concentrations were compared with those of the blank control, respectively. […]"}, "[2]": {"test": "Solubility in solvents (experimental results)", "assay_type": "physicochemical", "from_the_text": "The molecular weight is 367.9967."}, "[3]": {"system": "small cell lung cancer cell line H446", "test": "Cell viability CCK-8 assay, H446", "assay_type": "cell-based", "settings": "48 h after dosing", "from_the_text": "Test cell line: small cell lung cancer cell line H446 (purchased from Shanghai Beinuo Life Science Co., Ltd.)\nCell viability CCK-8 assay: CCK8 assay, with a reagent containing 2-(2-methoxy-4-nitrophenyl)-3-(4-nitrophenyl)-5-(2,4-disulfophenyl)-2H-tetrazole monosodium salt (WST-8), is reduced by dehydrogenase in the cells in the presence of electron carrier 1-methoxy-5-methylphenazinium […] (1-Methoxy PMS), to obtain a highly water-soluble yellow formazan product (Formazan), and the count of viable cells is positively associated with the amount of obtained formazan product. Thus, CCK8 assay can be directly used for the evaluation of cell proliferation and toxicity analysis.\nEach well of 96-well plate was loaded at an amount of 7×10^3 cells/well. After 24 h plating, 200 μl of solution was supplied to each well. NIC-1, vp-16 and blank were applied to the plate in four concentrations: concentration 1=1.528 μm, concentration 2=1.528 μm*2, concentration 3=1.528 μm*5, concentration 4=1.528 μm*10, wand each group was made in triplicate.\nThe plate was harvested 48 h after dosing, by:\ndiscarding 200 μl solution in each well, adding 100 μl solution (90 μl medium+10 μl CCK8 stock solution) to each well, placing the plate in a 37° C. incubator for about 1 hour, and measuring a value of OD at 450 nm using a microplate reader.\nThe small cell lung cancer cell line H446 was treated with NIC-1 and etoposide (vp16) for […] respectively, and then the cell viability was detected by CCK-8 assay.\nThe synthesized compound NIC-1 of the present invention in the concentrations of 1.528 μM, 3.056 μM, 7.64 μM and 15.28 μM was compared with etoposide (vp16) and blank control, respectively. As shown in FIGS. 5-8, a chart of comparison of the inhibitory effect on the cell viability of small cell lung cancer cell line H446 was shown in each figure, wherein the horizontal axis represented the blank control, NIC-1, vp-16 and corresponding dosage concentrations, and the vertical axis represented measured OD values."}, "[4]": {"system": "small cell lung cancer cell line H446", "test": "H446 cell colony in vitro formation assay (crystal violet staining)", "assay_type": "cell-based", "settings": "Day 7 (one week)", "protocol": "Test cell line: small cell lung cancer cell line H446 (purchased from Shanghai Beinuo Life Science Co., Ltd.) Experimental method: H446 cell colony in vitro formation assay\nDetection method: crystal violet staining\nOn Day 1, a 6-well plate (Transwell, batch No. 3428, manufactured by Corning Incorporated) was adopted as cell plate, with 2000 cells/well per plate.\nOn Day 2, after microscopic observation of cell adherence, a 1 ml medium containing the drug was loaded to each well, with settings of 2 wells in one group and totally three groups: A. 6 μmol/L, a. 6 μmol/L (multiple wells); B. blank (no drug); b. blank (no drug, multiple wells); C. 12 μmol/L; c. 12 μmol/L (multiple wells); the drugs were changed every three days, and the observation was performed every day.\nOn Day 7, cell colonies were visually observed at the bottom of the vessel, and the cells were collected by: discarding the culture medium in each well, washing cells with phosphate buffered saline (PBS) twice for 5 minutes each time, adding 500 μl crystal violet stain solution to each well for staining at room temperature for 15 minutes, washing cells with PBS twice for 5 minutes each time, and finally detecting on a WB analyzer."}, "[5]": {"system": "human body", "settings": "oral treatment of taeniasis, adults and children; cited from earlier work"}, "[6]": {"system": "patients with relapsed SCLC", "settings": "cited from earlier work"}, "[7]": {"settings": "oral, Day 1, 8 and 15 of 28 days"}}}
{"molecule": "CC(=O)Oc1ccc(Cl)cc1C(=O)Nc1ccc([N+](=O)[O-])cc1Cl", "note": "[NIC-1, N-(2-chloro-4-nitrophenyl)-5-chloro-2-acetoxybenzamide]", "values": [{"measurement": "inhibitory effect on cell viability of Jurkat cell line compared with control drug", "setting": "[1]", "result": "superior to the control drug"}, {"measurement": "solubility in dichloromethane", "setting": "[2]; dichloromethane", "result": "soluble"}, {"measurement": "solubility in ethanol", "setting": "[2]; ethanol", "result": "slightly soluble"}, {"measurement": "solubility in ether", "setting": "[2]; ether", "result": "slightly soluble"}, {"measurement": "solubility in water", "setting": "[2]; water", "result": "insoluble"}, {"measurement": "inhibitory effect on cell viability of H446 compared with etoposide (vp16)", "setting": "[3]; 1.528 μM", "result": "slightly better than etoposide (vp16)"}, {"measurement": "inhibitory effect on cell viability of H446 compared with etoposide (vp16)", "setting": "[3]; 3.06 μM", "result": "significantly better than etoposide (vp16)"}, {"measurement": "inhibitory effect on cell viability of H446 compared with etoposide (vp16)", "setting": "[3]; 7.64 μM", "result": "significantly better than etoposide (vp16)"}, {"measurement": "inhibitory effect on cell viability of H446 compared with etoposide (vp16)", "setting": "[3]; 15.28 μM", "result": "significantly better than etoposide (vp16)"}, {"measurement": "inhibition of growth of H446 cells (colony formation)", "setting": "[4]; 6 μmol/L", "result": "partially inhibited"}, {"measurement": "inhibition of growth of H446 cells (colony formation)", "setting": "[4]; 12 μmol/L", "result": "completely inhibited"}]}
{"molecule": "O=C(Nc1ccc([N+](=O)[O-])cc1Cl)c1cc(Cl)ccc1O", "note": "[N-(2-chloro-4-nitrophenyl)-5-chloro-2-hydroxybenzamide]", "values": [{"measurement": "side effects", "setting": "[5]", "result": "occasional side effects manifested by fatigue, dizziness, chest tightness, gastrointestinal disorders, fever and itching"}]}
{"molecule": "CC[C@@]1(O)C(=O)OCc2c1cc1n(c2=O)Cc2cc3c(CN(C)C)c(O)ccc3nc2-1", "note": "[topotecan]", "values": [{"measurement": "dose at which dose-limiting toxicity (DLT) appeared", "setting": "[6]; [7]", "result": 4.5, "unit": "mg/m^2"}, {"measurement": "maximum tolerated dose (MTD)", "setting": "[6]; [7]", "result": 4, "unit": "mg/m^2"}, {"measurement": "II degree thrombocytopenia", "setting": "[6]; weekly oral", "result": 16.7, "unit": "%"}, {"measurement": "II-III degree anemia", "setting": "[6]; weekly oral", "result": 33.3, "unit": "%"}, {"measurement": "II-III degree fever", "setting": "[6]; weekly oral", "result": 44.4, "unit": "%"}, {"measurement": "II-III degree neutropenia", "setting": "[6]; weekly oral", "result": 27.8, "unit": "%"}, {"measurement": "median progression-free survival (PFS)", "setting": "[6]; weekly oral", "result": 2.3, "unit": "months"}, {"measurement": "median survival (OS)", "setting": "[6]; weekly oral", "result": 5.1, "unit": "months"}]}
